Experimental data from article PMC5587727 (Nucleic Acids Research, 2017).

Biological target: hDcp2 (Homo sapiens, UniProt Q8IU60)
Assay: In vitro RNA decapping assay with hDcp2
Format: biochemical
Conditions: RNA capped with the analogue; 15 min incubation; 100 ng capped RNA, 630 nM hDcp2

Row | Structure (SMILES) | Decapping susceptibility (% of RNA decapping) [%]
1 | CO[C@H]1[C@@H](O)[C@H]([n+]2cn(C)c3c(=O)[nH]c(N)nc32)O[C@@H]1COP(=O)([O-])OP(=O)(O)OP(=O)(O)OC[C@H]1O[C@@H](n2cnc3c(=O)[nH]c(N)nc32)[C@H](O)[C@@H]1O [m2^7,3′-OGpppG] | 74 ± 3
2 | Cn1c[n+]([C@@H]2O[C@H](COP(=O)(O)OP(=O)([O-])OP(=O)(O)OC[C@H]3O[C@@H](n4cnc5c(=O)[nH]c(N)nc54)[C@H](O)[C@@H]3O)[C@@H](O)[C@H]2O)c2nc(N)[nH]c(=O)c21 [m^7GpppG] | 82 ± 2
